Measured values published in patent EP4714939A1, “SULFONAMIDE COMPOUND, PREPARATION METHOD THEREFOR, AND PHARMACEUTICAL USE THEREOF” (Shenzhen Salubris Pharmaceuticals Co., Ltd., priority 2023, dated 2024).

Assays:
Lp(a) = assay: In-vitro Lp(a) assembly assay (cell-free, sandwich ELISA); type: biochemical; settings: inhibition of Lp(a) formation; HepG2 and HEK293 (human Apo(a), 17 Kringle repeats) conditioned media, 37°C, 2 hours; 4-parameter curve
Description: The capability of the compounds in the examples inhibiting the formation of Lp(a) particles in vitro was evaluated through cell-free assembly assay. After incubation at 37°C with 5% CO2 for 96 h, conditioned media (supplemented with 10% FBS, 20 mM HEPES, and 1 × penicillin/streptomycin DMEM) was collected from confluent wild-type HepG2 cells (source of endogenously expressed ApoB) and an HEK293 stable cell line expressing human Apo(a) protein containing 17 Kringle repeats (selected on 1 ug/ml puromycin). In-vitro assembly assay was performed by combining equal parts of HepG2 and HEK293 conditioned media with compounds under test added in a dilution series (final concentration being 0.03-1000 nM). A reaction was incubated at 37°C for 2 hours, and terminated by adding 6-aminocaproic acid (EACA) to a final concentration of 150 mM. Sandwich ELISA was used to detect Lp(a) using an anti-Apo(a) capture antibody (ab242565) and an HRP-conjugated anti-ApoB detection antibody (ab27622). ELISA was performed using TMB staining, and terminated with 1N sulfuric acid, and signals were read at 450 nm on an Envision 2104 plate reader. By setting an assembly reaction without inhibitors to 0% inhibition and an assembly reaction with the minimum amount of HepG2 conditioned medium (50-fold dilution) to 100% inhibition, the % inhibition of Lp(a) formed under each test condition was determined. Table 1 IC90 values of sulfonamide compounds

in vivo = settings: cynomolgus monkey
Description: (§1) Cynomolgus monkey: male, 3-6 kg, purchased from Guangzhou Huazhen biotechnology Co., Ltd. and Hainan Jingang Biotech Co., Ltd.

[1] = Pharmacokinetic experiment for monkeys; settings: Cynomolgus monkey, 5 mg/kg, p.o
Description: as §1

| Structure (SMILES) | IC90 (Lp(a)) [nM] | also measured |
| --- | --- | --- |
| O=C(O)[C@@H](Cc1cccc(S(=O)(=O)N(Cc2ccc(F)c(C[C@H](C(=O)O)[C@H]3CCNC3)c2)Cc2ccc(F)c(C[C@H](C(=O)O)[C@H]3CCNC3)c2)c1)[C@H]1CCNC1 [Compound 9] | 45.8 | AUC(0-t) (in vivo; po, 5 mg/kg): 22100 ng·h/mL; Cmax (in vivo; po, 5 mg/kg): 1690 ng/mL; F [1]: 7.49% |
| O=C(O)[C@@H](Cc1cccc(CN(CCc2ccccc2C[C@H](C(=O)O)[C@H]2CCNC2)S(=O)(=O)c2cccc(C[C@H](C(=O)O)[C@H]3CCNC3)c2)c1)[C@H]1CCNC1 [Compound 3] | 61 | AUC(0-t) (in vivo; iv, 0.5 mg/kg): 33300 ng·h/mL; half-life (in vivo; iv, 0.5 mg/kg): 31.6 h |
| O=C(O)[C@@H](Cc1cccc(CN(Cc2cc(C[C@H](C(=O)O)[C@H]3CCNC3)c(F)cc2F)S(=O)(=O)c2cccc(C[C@H](C(=O)O)[C@H]3CCNC3)c2)c1)[C@H]1CCNC1 [Compound 15] | 16 | – |

More lines, main results first:

| IC90 (Lp(a)) [nM] | Structure (SMILES) | also measured |
| --- | --- | --- |
| 49.9 | O=C(O)[C@@H](Cc1cccc(CN(Cc2cccc(C[C@H](C(=O)O)[C@H]3CCNC3)c2)S(=O)(=O)c2cccc(C[C@H](C(=O)O)[C@H]3CCNC3)c2)c1)[C@H]1CCNC1 [Compound 1] | AUC(0-t) (in vivo; iv, 0.5 mg/kg): 41000 ng·h/mL; half-life (in vivo; iv, 0.5 mg/kg): 21 h |
| 21.1 | O=C(O)C(Cc1cccc(S(=O)(=O)N(Cc2c(F)ccc(CC(C(=O)O)C3CCNC3)c2F)Cc2c(F)ccc(CC(C(=O)O)C3CCNC3)c2F)c1)C1CCNC1 [Compound 31, (2S,2'S)-3,3'-((3-((S)-2-carboxyl-2-(R)-pyrrolid-3-yl)ethyl)phenyl)sulfonyl)azadiyl)bis(methylenyl))bis(2,6-difluoro-3,1-phenylenyl)bis(2-(R)-pyrrolid-3-yl)propanoic acid)] | – |
| 17.7 | O=C(O)C(Cc1ccc(F)c(CN(Cc2cc(CC(C(=O)O)C3CCNC3)ccc2F)S(=O)(=O)c2ccc(F)c(CC(C(=O)O)C3CCNC3)c2)c1)C1CCNC1 [Compound 34, (2S,2'S)-3,3'-(((((3-((S)-2-carboxyl-2-((R)-pyrrolid-3-yl)ethyl)-4-fluorophenyl)sulfonyl)azadiyl)bis(methylenyl))bis(6-fluoro-3,1-phenylenyl))bis(2-((R)-pyrrolid-3-yl)propanoic acid)] | – |
| 25.1 | O=C(O)C(Cc1cc(S(=O)(=O)N(Cc2ccc(Cl)c(CC(C(=O)O)C3CCNC3)c2)Cc2ccc(Cl)c(CC(C(=O)O)C3CCNC3)c2)ccc1F)C1CCNC1 [Compound 42, (2S,2'S)-3,3'(3-((S)-2-carboxyl-2-(R)-pyrrolid-3-yl)ethyl)-4-fluorophenylsu lfonyl)azadiyl)dimethylenyl)bis(6-chloro-3,1-phenylenyl)bis(2-(R)-pyrrolid-3-yl)propanoic acid)] | – |
